According to patent US9867795B2, “Nitrated lipids and methods of making and using thereof” (The UAB Research Foundation, priority 2004, dated 2018):

Target: T1, hPPARδ (Homo sapiens, UniProt Q03181)
T1 construct: For assessing full-length PPAR receptors, CV-1 cells were transiently co-transfected; expressed in transfected cells; host or cells: CV-1 cells
T1 sequence (Q03181 1-441): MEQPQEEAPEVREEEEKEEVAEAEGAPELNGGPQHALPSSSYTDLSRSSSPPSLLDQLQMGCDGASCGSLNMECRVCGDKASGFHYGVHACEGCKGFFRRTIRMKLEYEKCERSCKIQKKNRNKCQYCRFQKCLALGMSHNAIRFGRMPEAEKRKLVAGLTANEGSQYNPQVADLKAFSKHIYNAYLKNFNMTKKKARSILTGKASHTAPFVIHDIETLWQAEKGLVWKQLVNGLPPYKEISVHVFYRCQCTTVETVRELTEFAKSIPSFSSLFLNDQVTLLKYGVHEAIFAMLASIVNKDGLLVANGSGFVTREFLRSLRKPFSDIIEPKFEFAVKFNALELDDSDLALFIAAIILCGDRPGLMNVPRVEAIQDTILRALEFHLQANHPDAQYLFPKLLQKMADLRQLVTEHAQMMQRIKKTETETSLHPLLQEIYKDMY
Experiment: CV-1 PPRE×3 TK-Luciferase transient transfection assay
Type: cell-based
Details: PPRE reporter, CV-1 cells
Protocol: Cell Transient Transfection Assay. CV-1 cells from ATCC (Manassas, Va.) were grown to ˜85% confluence in DMEM/F12 supplemented with 10% FBS, 1% penicillin-streptomycin. Then, cells were transiently co-transfected with a plasmid containing the luciferase gene under regulation by four Gal4 DNA binding elements (UASG×4 TK-Luciferase, a gift from Dr. Ronald M. Evans), in concert with plasmids containing the ligand binding domain for the different nuclear receptors fused to the Gal4 DNA binding domain. For assessing full-length PPAR receptors, CV-1 cells were transiently co-transfected with a plasmid containing the luciferase gene under the control of three tandem PPAR response elements (PPRE) (PPRE×3 TK-Luciferase) and hPPARγ, hPPARα or hPPARδ expression plasmids, respectively. In all cases, fluorescence protein (GFP) expression plasmid was co-transfected as the control for the transfection efficiency. Twenty-four hours after the transfection, cells were cultured for another 24 hours in Optium-MEM (Invitrogen, Carlsbad, Calif.). Then, cells were treated with different compounds as indicated in figures for 24 hours in Optium-MEM. […]
PPAR transient transfection assay. […] In all cases, fluorescence protein (GFP) expression plasmid was co-transfected as the control for transfection efficiency. […]

## 9- and 10-nitro-9-cis-octadecenoic acid [OA-NO2]
FIG. 17 legend
  concentration at which PPARδ activation is significantly different from vehicle: 1 µM
Text of Example 3
  concentration at which PPARδ shows significant activation: ~300 nM
